According to patent publication US20240383922A1, “KRAS Modulating Compounds” (Gilead Sciences, Inc., priority 2023, published 2024):

Tests used:
[1] = test system: cellular pERK in ASPC-1 (KRAS G12D) cell-line; assay: Cell based pERK assay (HTRF), ASPC-1; settings: Homo sapiens, ASPC1; ASPC-1 (KRAS G12D) cells, 2 hours incubation
Experimental: (§1) Compounds were tested in a 384-well assay format for their ability to inhibit cellular pERK in Kuramochi (WT KRAS), MIA-PaCa-2 (KRAS-G12C), ASPC-1 (KRAS G12D), and NCI-H441 (KRAS-G12V) cell-lines. Compounds were serially diluted (1:3) in DMSO. On day −1, 80 uL of cells were plated per well in the 384 well tissue-culture plates (Greiner: Cat #781080) to seed 5000 cells per wells of AsPC-1 or 7500 cells of MIA-PaCa-2, NCI-H441, and Kuramochi cell lines in RPMI (Corning: Cat #10-040-CM) with 10% fetal bovine serum (FBS) (HyClone: Cat #SH30071-03) and 1× penicillin-streptomycin-glutamate (PSG) (Corning: Cat #30-009-CI) for […] and Kuramochi cell lines and DMEM (Corning: Cat #15-018-CM) with […] and 1× PSG for MKA-PaCa-2 cell line. The plates were then incubated overnight at 37° C. and 5% CO2. On day 0, 400 nL of compound/well was added into the cell plates and mixed 5 times by pipetting using a Beckmann Biomek FX. The cell plates were then incubated for 2 hours at 37° C. and 5% CO2. HTRF Advanced Phospho-ERK1/2 ([…]) Detection Kits (PerkinElmer: Cat #64AERPEG) were used to prepare the lysis and detection solution according to manufacturer protocol. Following the 2 hour incubation, 70 μL of medium was aspirated from the plates and 10 uL of lysis and detection solution was added to the plates using a Biotek EL406 washer and dispenser. Plates were sealed and stored overnight at room temperature. HTRF ratio (665 nm/615 nm) was read by Envision multimode reader (PerkinElmer) the next day. The TR-FRET ratios were normalized to a positive (saturating concentration of known inhibitor) and negative (DMSO) control and plotted against the log of compound concentration. IC50 values were defined as the compound concentration that causes a […] in normalized signal and were calculated using a sigmoidal dose-response model to generate curve fits.

[2] = test system: cellular pERK in MIA-PaCa-2 (KRAS-G12C) cell-line; assay: Cell based pERK assay (HTRF), MIA-PaCa-2; settings: Homo sapiens; MIA-PaCa-2 (KRAS-G12C) cells, 2 hours incubation; read-out: MIAPaCa2 pERK EC50
Experimental: as §1

[3] = test system: cellular pERK in NCI-H441 (KRAS-G12V) cell-line; assay: Cell based pERK assay (HTRF), NCI-H441; settings: Homo sapiens; NCI-H441 (KRAS-G12V) cells, 2 hours incubation
Experimental: as §1

[4] = test system: cellular pERK in Kuramochi (WT KRAS) cell-line; assay: Cell based pERK assay (HTRF), Kuramochi; settings: Kuramochi (WT KRAS) cells, 2 hours incubation
Experimental: as §1

EC50 [1]	EC50 [2]	EC50 [3]	EC50 [4]	SMILES
> 1000 nM	328 nM	825 nM	384 nM	C#Cc1c(F)ccc2cccc(-c3nc4c5c(nc(OC[C@@]67CCCN6C[C@H](F)C7)nc5c3F)N3CCCOC[C@@H]3CC4)c12 [Example 6-7]
> 1000 nM	430 nM	729 nM	376 nM	C#Cc1c(F)ccc2cccc(-c3nc4c5c(nc(OCC67CCCN6CCC7)nc5c3F)N3CCCOC[C@@H]3CC4)c12 [Example 6-9]
706 nM	280 nM	460 nM	289 nM	C#Cc1c(F)ccc2cccc(-c3nc4c5c(nc(OC[C@@]67CCCN6[C@H](CF)CC7)nc5c3F)N3CCCOC[C@@H]3CC4)c12 [Example 6-10]
24.4 nM	1.68 nM	8.06 nM	16.6 nM	C#Cc1c(F)ccc2cc(O)cc(-c3nc4c5c(nc(OCC67CCCN6CCC7)nc5c3F)N3CCCOC[C@@H]3CC4)c12 [Example 6-11]
> 1000 nM	265 nM	> 1000 nM	78.5 nM	C#Cc1c(F)ccc2cc(O)cc(-c3nc4c5c(nc(OC[C@@]67CCCN6C[C@H](F)C7)nc5c3F)N3CC5(COCC3CC4)OCCO5)c12 (stereo partly drawn) [Example 6-16]
0.61 nM	0.28 nM	0.56 nM	1.99 nM	C#Cc1c(F)ccc2cc(O)cc(-c3nc4c5c(nc(OC[C@@]67CCCN6C[C@H](F)C7)nc5c3F)N3CCCOC[C@@H]3C=C4C)c12 [Example 6-18]
1.18 nM	0.47 nM	1.15 nM	4.01 nM	C#Cc1c(F)ccc2cc(O)cc(-c3nc4c5c(nc(OC[C@@]67CCCN6C[C@H](F)C7)nc5c3F)N3CCCOC[C@@H]3C=C4)c12 [Example 6-19]
> 1000 nM	448 nM	397 nM	48.4 nM	C#Cc1c(F)ccc2cc(O)cc(-c3nc4c5c(nc(O[C@@H](C)[C@@H]6CCCN6C)nc5c3F)N3CCCOC[C@@H]3CC4)c12 [Example 6-24]
9.84 nM	3.87 nM	4.57 nM	17.9 nM	C#Cc1c(F)ccc2cc(O)cc(-c3nc4c5c(nc(OC[C@@]67CCCN6[C@H](COC(=O)N(C)C)CC7)nc5c3F)N3CCCOC[C@@H]3CC4)c12 [Example 6-25]
1.19 nM	1.59 nM	4.04 nM	2.61 nM	C#Cc1c(F)c(F)cc2cc(O)cc(-c3nc4c5c(nc(OC[C@@]67CCCN6C[C@H](F)C7)nc5c3F)N3CCCOC[C@@H]3CC4)c12 [Example 6-26]
97.1 nM	17.4 nM	58.7 nM	28.8 nM	C#Cc1c(F)ccc2cc(O)cc(-c3nc4c5c(nc(OC[C@@]67CCCN6C[C@H](F)C7)nc5c3F)N3CCCOC[C@@H]3C[C@@H]4F)c12 [Example 6-27]
741 nM	23.8 nM	452 nM	46.3 nM	C#Cc1c(F)ccc2cc(O)cc(-c3nc4c5c(nc(OC[C@@]67CCCN6C[C@H](F)C7)nc5c3F)N3CCC(O)CC[C@@H]3CC4)c12 (stereo partly drawn) [Example 6-29]
25.8 nM	4.01 nM	6.23 nM	3.44 nM	C#Cc1c(F)ccc2cc(N)cc(-c3nc4c5c(nc(OC[C@@]67CCCN6[C@H](CF)CC7)nc5c3F)N3CCCOC[C@@H]3CC4)c12 [Example 7-2]
118 nM	9.14 nM	20 nM	6.12 nM	C#Cc1c(F)ccc2cc(N)cc(-c3nc4c5c(nc(OCC67CCCN6CCC7)nc5c3F)N3CCCOC[C@@H]3CC4)c12 [Example 7-3]
125 nM	72.3 nM	> 1000 nM	41.1 nM	C#Cc1c(F)ccc2cc(N)cc(-c3nc4c5c(nc(OC[C@@]67CCCN6C[C@H](F)C7)nc5c3F)N3CCCOC[C@H]3C=C4C)c12 [Example 7-8]
